In patent publication US10086007B2, “Materials and methods for treatment of cystic fibrosis and for induction of ion secretion” (priority 2012, dated 2018):

Tests used:
[1] = system: small intestine cells; assay: Glucose-induced HCO3- secretion in small intestine cells; type: cell-based; parameters: dose or concentration left out as unconfirmed
[2] = system: Caco-2 cells; assay: Confocal Ca2+ fluorescence microscopy (Fluo-8); type: cell-based
Protocol: Caco-2 cells are obtained from ATTC and cultured in Dulbecoo's modified Eagle's medium supplemented with 10% fetal calf serum (FCS) and 1% nonessential amino acids at 37° C. and 5% CO2. Caco-2 cells are passaged for 20-25 times and are seeded (2×10^5 cells/dish) on 5 cm petri-dishes and grown until 80% confluence, when the FCS concentration is changed to 5%. Cells are grown for another 10 days before they are used for functional studies.
Caco2 cells grown in 25 mm round coverslips are mounted on the bath chamber RC-21BR attached to series 20 stage adapter (Warner Instruments, CT USA). The cells are maintained at 37° C. using a single channel table top heater controller (TC-324B, Warner Instruments, CT USA). Cells are loaded with the fluorescent calcium indicator Fluo-8 AM dye (Cat #0203, TEFLab, Inc., Austin, Tex. USA) at 0.5 μM concentration at room temperature and incubated for 45 minutes. Confocal laser scanning microscopy is performed using an inverted Fluoview 1000 IX81 microscope (Olympus, Tokyo, Japan) and a U Plan S-Apo 20× objective. Fluorescence is recorded by argon lasers with excitation at 488 nm and emission at 515 nm. The Fluorescent images are collected with scanning confocal microscope. […] Changes are recorded and fluorescence is measured for various cells. […]

[3] = system: chloride secretion; assay: Chloride secretion with NSP4 peptide and glucose (FIG. 7); type: cell-based
[4] = system: ileal mucosa; type: cell-based, mouse
Text: Normally fed, 8-week-old, male NIH Swiss mice are sacrificed by CO2 inhalation, followed by cervical dislocation. The small intestine is gently removed, and the segment is washed and flushed in ice-cold Ringer's solution. Then the mucosa is separated from the serosa and the muscular layers by stripping through the submucosal plane as previously described (Zhang et al. (2007) J Physiol 581(3):1221-1233). Following exsanguinations, ileal mucosa is obtained from a 10 cm segment close to the caecum. All experiments are approved by the University of Florida Institutional Animal Care and Use Committee.
Ion transport studies are performed on ileal sheets. Tissues are then mounted in between the two halves of an Ussing type-Lucite chamber with 0.3 cm^2 exposed surface areas (P2304, Physiologic Instruments, San Diego, Calif., USA). Regular Ringer's solution (115 mM NaCl, 25 mM NaHCO3, 4.8 mM K2HPO4, 2.4 mM KH2PO4, 1.2 mM MgCl2 and 1.2 mM CaCl2) bubbled with 95% O2: 5% CO2 is used bilaterally as bathing solution for the tissues and the temperature is maintained constant at 37° C. The chambers are balanced to eliminate osmotic and hydrostatic forces. Resistance due to fluid is also compensated. The tissues are allowed to stabilize. The basal short-circuit current (Isc) and the corresponding conductance (G) are recorded using a computer controlled voltage/current clamp device (VCC MC-8, Physiologic Instruments).
The tissues are incubated with H-89 for 30 minutes. Increasing concentrations of glucose (0.015-8 mM) are added every 5 minutes and the peak current is noted. Saturation kinetic constant is calculated for the corresponding Km and Vmax for treated and untreated tissues.

[5] = system: Caco-2 cells; assay: Gramicidin perforated whole cell currents (patch clamp); type: cell-based; parameters: dose or concentration left out as unconfirmed; settings: in the continued presence of glucose
[6] = system: Caco-2 cells; assay: Ussing chamber Isc in Caco-2 cells grown on permeable inserts; type: cell-based; settings: added to the apical side of Caco-2 cells
Protocol: Caco-2 cells are obtained from ATTC and cultured in Dulbecoo's modified Eagle's medium supplemented with 10% fetal calf serum (FCS) and 1% nonessential amino acids at 37° C. and 5% CO2. […] Cells are grown for another 10 days before they are used for functional studies.

[7] = system: NFA-sensitive current; assay: Isc with NSP4 peptide and glucose (FIG. 6); type: cell-based

## O=C(O)c1cc([N+](=O)[O-])ccc1NCCCc1ccccc1 [NPPB]
[1]; NPPB
  inhibition of glucose-induced, anion channel-mediated HCO3^− secretion: significant inhibition
[1]; with NPPB
  glucose-induced, anion channel-mediated HCO3^− secretion: 4.2±0.7 mEq·h^−1·cm^−2

## O=C(O)CN(CC(=O)O)c1ccccc1OCCOc1ccccc1N(CC(=O)O)CC(=O)O [BAPTA]
[2]; pre-incubating the cells 45 minutes with BAPTA
  glucose-stimulated increase in intracellular Ca^2+ after pre-incubation: fails to show a glucose-stimulated increase

## O=C(O)c1cccnc1Nc1cccc(C(F)(F)F)c1 [NFA, niflumic acid]
[3]
  inhibition of chloride secretion induced by NSP4 peptide and glucose: not completely inhibited
[4]; 100 μM to the lumen side, 8 mM glucose
  inhibition of glucose-stimulated increase in Isc: partial inhibition
[5]
  effect on glucose activated inward current: inhibits the glucose activated inward current
[6]
  inhibition of glucose-stimulated increase in Isc: significant inhibition
[7]
  inhibition of anion secretion induced by NSP4 peptide and glucose: not completely inhibited
[7]; NFA 100 μM
  effect on NSP4114-135-stimulated current: abolishes

## CO[C@@H]([C@H](O)[C@H](O)CO)[C@@H](O)C=O [3-OMG, 3-O-methylglucose]
[4]; increasing concentration added to lumen side, Michaelis-Menten fit, n=6 tissues
  Vmax of Isc increase: 1.9±0.13 μeq·h^−1·cm^−2
[4]; increasing concentration added to lumen side, Michaelis-Menten fit, n=6 tissues, read-out: Km of Isc increase
  Km: 220 ± 70 µM
[2]
  intracellular Ca^2+ increase compared to similar concentration of glucose: little increase

## O=S(=O)(NCCNC/C=C/c1ccc(Br)cc1)c1cccc2cnccc12 [H89, H-89]
[4]; pre-treatment of small intestine cells with PKA inhibitor
  effect on glucose-stimulated net increase in Isc: significant reduction

## O=C(CCc1ccc(O)cc1)c1c(O)cc(O)cc1O[C@@H]1O[C@H](CO)[C@@H](O)[C@H](O)[C@H]1O [phlorizin]
[4]; tissues pre-treated with phlorizin
  Isc response to increasing glucose in pre-treated tissues: no response to glucose
